Measurements: article PMC3517777, “Phase I study of TP300 in patients with advanced solid tumors with pharmacokinetic, pharmacogenetic and pharmacodynamic analyses” (BMC Cancer, 2012)

How the values were obtained:
neutrophil count = assay: Exposure versus fall in nadir neutrophil count, sigmoid Emax model; assay type: in vivo, human; settings: 1-nadir/pre-observation neutrophils in cycle 1 vs total AUC of TP3076 plus TP3011, sigmoid Emax fit
Procedure: Pharmacokinetic parameters derived from plasma concentration-time data of TP3076 or TP3011 by non-compartmental methods using WinNonlin (version 5.1; Pharsight Corp), included maximal plasma concentration (Cmax) and time of Cmax (Tmax), apparent plasma elimination half-life (t1/2), and the area under the curve (AUC). The urinary excretion ratio (fe) of TP3076 and TP3011 was calculated from the urinary concentration and volume up to 48 hours after administration, and the administration dose. The linearity of Cmax and AUC was determined with linear regression, analysis of variance and power model analysis. The sum of the AUCs of TP3076 and TP3011 was plotted against percentage (%) fall in nadir neutrophil count to explore the relationship between exposure and myelosuppression as a measure of anti-proliferative effect and a sigmoid Emax model fitted to the data:
where γ is the Hill equation constant and EAUC50 is the AUC associated with 50% of the maximal effect.

[1] = Single and repeat dose toxicity studies (preclinical); assay type: in vivo; settings: most sensitive of the two species tested; equals 6 mg/m^2
Procedure: (§1) The starting dose of 1 mg/m^2 was derived from single and repeat dose toxicity studies and represented one sixth of 0.3 mg/kg (6 mg/m^2), a dose tolerated without evidence of serious, irreversible or life-threatening toxicity in the most sensitive of the two species tested. Doses were doubled in subsequent cohorts until grade ≥2 toxicity was observed, whereupon a modified Fibonacci dose escalation scheme was used. In each cohort the first patient was required to complete 1 cycle before subsequent patients were entered. Intra-patient dose-escalation was not allowed.

[2] = tested on: peripheral blood mononuclear cells (PBMCs); assay: Single cell gel electrophoresis (comet) assay of DNA strand breaks; assay type: in vivo, human; settings: 1 hour post first dose, across all doses
Procedure: Analysis of the ability of TP300 to induce DNA strand breaks was performed on peripheral blood mononuclear cells (PBMCs), pre-dose, 1, 3 and 24 hours post cycle 1. A validated single cell gel electrophoresis (comet) assay was used to assess DNA single-strand breaks. An average of 50 PBMC cells/time-point were analysed and the tail moment (TM) calculated, as the product of the percentage of DNA in the comet tail and the distance between head and tail distributions; higher TM values reflect greater DNA strand breakage. Statistical analyses were not performed due to the limited number of subjects/samples per cohort.

[3] = tested on: range of tumour types in vitro; set-up: method as in PMID 19495753; settings: cited from earlier work
advanced solid tumors = assay: Antitumour activity (RECIST) in Phase I patients; assay type: in vivo, human
Procedure: (§2) The MTD was the dose level below that at which ≥ 2 out of 3–6 patients experienced a DLT. Radiologic assessment of disease was performed every 2 cycles. Patients could remain on treatment if there was evidence of clinical benefit but were withdrawn from the study upon clinical or radiologic progression, unacceptable toxicity or withdrawal of consent.

[4] = tested on: tumours over-expressing the breast cancer resistance protein [BCRP]; set-up: method as in PMID 19495753; settings: unlike SN38; cited from earlier work
[5] = Phase I dose escalation of TP300: toxicity (CTCAE v3.0), DLT, MTD; assay type: in vivo, human
Procedure: TP300 was given as a 1-hour intravenous (i.v.) infusion, by peripheral venous catheter, every 3 weeks.
as §1, §2
Toxicity was assessed weekly and graded using the National Cancer Institute Common Toxicity Criteria (CTCAE) version 3.0. DLT was defined as the occurrence of any of the following adverse events: grade 4 thrombocytopenia; febrile neutropenia or grade 4 neutropenia > 5 days duration; grade 4 diarrhoea not reduced to grade 1 within 2 days of appropriate therapy; other gastro-intestinal toxicities (e.g. vomiting, nausea, stomatitis) ≥ grade 3 and not reduced to grade 1 within 2 days of appropriate therapy; any other non-haematologic toxicities ≥ grade 3 (excluding alopecia).

[6] = suspected treatment related adverse events within cycle 1, N = 32, all doses 1-12 mg/m^2

CCCCCN1C=Nc2cccc3nc4c(c1c23)Cn1c-4cc2c(c1=O)COC(=O)[C@@]2(CC)OC(=O)CN(C)C(=O)CN [TP300, glycine,glycyl-N-methyl-,(9S)-9-ethyl-9,10,13,15-tetrahydro-10,13-dioxo-1-pentyl-1H,12H-pyrano[3'',4'':6′,7′]indolizino[2′,1′:5,6]pyrido[4,3,2-de]quinazolin-9-yl ester, hydro-chloride]
EAUC50 (AUC associated with 50% of the maximal effect) (neutrophil count): 1.31
γ (Hill equation constant) (neutrophil count): 0.862
dose tolerated without evidence of serious, irreversible or life-threatening toxicity [1]: 0.3 mg/kg
increase of DNA strand breaks vs pre-treatment [2]: approximately 2 fold
mean tail moment (TM) ([2]; pre-treatment mean 0.69): 1.65
activity across a range of tumour types in vitro [3]: activity at nanomolar concentrations
patients with stable disease as best response (advanced solid tumors; 1 each at 4, 8 and 12 mg/m^2 and 3 at 10 mg/m^2): six
objective response as determined by RECIST (advanced solid tumors; 32 patients, 1-12 mg/m^2): no complete or partial responses
duration of stable disease (advanced solid tumors; six patients with stable disease): 1.5-5 months
activity in tumours over-expressing BCRP [4]: appears active
DLTs (patients with DLT / patients dosed) ([5]; 10 mg/m^2): 3/12
DLTs (patients with DLT / patients dosed) ([5]; 12 mg/m^2): 2/4
MTD (maximum tolerated dose) ([5]; 1-hour i.v. infusion 3-weekly, patients with advanced solid tumors): 10 mg/m^2
worst grade of diarrhoea ([5]; 8 patients developed diarrhoea, all doses): ≤ 2 grade
time to diarrhoea after TP300 treatment, average ([5]; 8 patients with diarrhoea): 9.5 days
time to diarrhoea after TP300 treatment, range ([5]; 8 patients with diarrhoea): 1 to 27 days
cholinergic effects ([5]; 32 patients, all doses): no patient experienced cholinergic effects
patients discontinued due to toxicity ([5]; 32 patients, all doses): 4 patients
treatment-related deaths ([5]; 32 patients, all doses): no treatment-related deaths
recommended Phase II starting dose ([5]; cycle 1): 8 mg/m^2
recommended Phase II dose on subsequent cycles ([5]; escalation if initial treatment is well tolerated): 10 mg/m^2
Anaemia, All grade [5, 6]: 6 ( 19) No. (%)
Anaemia, Grade 3 [5, 6]: 2 ( 6) No. (%)
Back pain, All grade [5, 6]: 1 ( 3) No. (%)
Back pain, Grade 3 [5, 6]: 1 ( 3) No. (%)
Chills, All grade [5, 6]: 2 ( 6) No. (%)
Chills, Grade 3 [5, 6]: 1 ( 3) No. (%)
Diarrhea, All grade [5, 6]: 8 ( 25) No. (%)
Diarrhea, Grade 3 [5, 6]: 0 (0) No. (%)
Dyspnoea, All grade [5, 6]: 1 ( 3) No. (%)
Dyspnoea, Grade 3 [5, 6]: 1 ( 3) No. (%)
Febrile neutropenia, All grade [5, 6]: 2 ( 6) No. (%)
Febrile neutropenia, Grade 3 [5, 6]: 2 ( 6) No. (%)
Hepatorenal failure, All grade [5, 6]: 1 ( 3) No. (%)
Hepatorenal failure, Grade 3 [5, 6]: 1 ( 3) No. (%)
Lethargy, All grade [5, 6]: 12 ( 38) No. (%)
Lethargy, Grade 3 [5, 6]: 4 ( 13) No. (%)
Leukopenia, All grade [5, 6]: 3 ( 9) No. (%)
Leukopenia, Grade 3 [5, 6]: 3 ( 9) No. (%)
Nausea, All grade [5, 6]: 13 ( 41) No. (%)
Nausea, Grade 3 [5, 6]: 0 (0) No. (%)
Neutropenia, All grade [5, 6]: 6 ( 19) No. (%)
Neutropenia, Grade 3 [5, 6]: 6 ( 19) No. (%)
Neutropenic sepsis, All grade [5, 6]: 1 ( 3) No. (%)
Neutropenic sepsis, Grade 3 [5, 6]: 1 ( 3) No. (%)
Syncope, All grade [5, 6]: 1 ( 3) No. (%)
Syncope, Grade 3 [5, 6]: 1 ( 3) No. (%)
Thrombocytopenia, All grade [5, 6]: 3 ( 9) No. (%)
Thrombocytopenia, Grade 3 [5, 6]: 3 ( 9) No. (%)
Vomitting, All grade [5, 6]: 9 ( 28) No. (%)
Vomitting, Grade 3 [5, 6]: 0 (0) No. (%)
